In brackets after ≈: the same amount, converted by molar mass.
How the values were obtained:
[1] = system: Human colon carcinoma (HCT-116) cell line; assay: Anticancer activity, MTT assay against HCT-116; format: cell-based; settings: for IC50: Homo sapiens, HCT-116, interpolated from graph (FIG. 5)
Description: (§1) The anticancer activity of the compound (3) denoted as “P” and compound (4) denoted as “DP” was assessed invitro by MTT 3-(4,5-dimethylthiazol-2-yl)-2,5-diphenyltetrazolium bromide assay against Human colon carcinoma (HCT-116) cell lines and Human breast adenocarcinoma (MDA-MB-468) respectively.
(§2) RPMI-1640, fetal bovine serum (FBS), penicillin, streptomycin was procured from HiMedia (Mumbai, India). Doxorubicin, MTT 3-(4,5-dimethylthiazol-2-yl)-2,5-diphenyltetrazolium bromide were procured from Sigma Aldrich (USA). The chemicals used were of analytical or HPLC grade. Human breast adenocarcinoma (MDA-MB-468), Human colon carcinoma (HCT-116) was procured from NCCS, Pune, India. The cell line was grown in the RPMI-1640 with 2 mM L-glutamine, supplemented with 10% FBS, penicillin (100 IU/mL) and streptomycin (100 μg/mL) at 37° C. in a 95% humidified CO2 incubator with 5% CO2 atmosphere. The cell lines were passaged twice weekly for maintaining sub-confluent state.
(§3) MTT assay was used as cell viability assay. The principle of the assay lies in the fact that the MTT is reduced to formazan crystals by mitochondrial dehydrogenase of the viable cells. The anticancer activity of compounds (3) and (4) was assessed invitro by MTT 3-(4,5-dimethylthiazol-2-yl)-2,5-diphenyltetrazolium bromide assay based on the methods by Mosmann, T and Bose et.al. (Mosmann, T. Journal of Immunological methods. 1983, 65, 55-63; and Bose, D. S.; Idrees, M.; Jakka, N. M.; Rao, J. V. J. Comb. Chem. 2010, 12, 100-110). Doxorubicin (DXN) a known anticancer drug was used as a reference compound in the assay. The treated and untreated cells were washed with PBS (Phosphate buffer saline) and MTT (100 μg/ml) was added and incubated at 37° C. for 5 hr. The MTT was then removed, and the formazan crystals were dissolved by adding DMSO. The absorbance at 540 nm represents the viable cells. The absorbance was recorded using Multiskan spectrum, Thermo scientific. […] The absorbance from the untreated cells was defined as 100% viable cells. The % viable cells were plotted (Y-axis) against concentration (X-axis). The IC50 values were interpolated from the graphs of FIGS. 5 and 6.

[2] = system: Human breast adenocarcinoma (MDA-MB-468) cell line; assay: Anticancer activity, MTT assay against MDA-MB-468; format: cell-based; settings: for IC50: Homo sapiens, MDA-MB-468, interpolated from graph (FIG. 6)
Description: as §1, §2, §3

[3] = Cytotoxicity MTT assay in HEK 293 cell line; format: cell-based; settings: human, HEK 293 cells, 48 hr of treatment, read-out: IC-50 value (cytotoxicity)
Description: Human embryonic kidney HEK 293 cell line were cultured in complete DMEM (Dulbecco's modified eagle medium) high glucose medium with 10% foetal bovine serum and 1% Penicillin Streptomycin and grown at 37° C.in a humidified incubator with 5% CO2. The cells were grown in T-25 flasks till about 80% confluency and 5000cells/well were seeded in a 96 well cell culture plate.
After 24 hr the cells were treated with all the concentrations of the drug (compound (4)) in triplicates and incubated for 48 hr.
After 48 hr of incubation MTT was added at a concentration of 0.5 mg/ml and incubated at 37° C. for 4 hr. After 4 hr the media was discarded from each well and DMSO was added. After 30 mins of incubation at 37° C.the colorimetric data was taken at 570 nm.

HEK cell line = assay: ROS production in HEK cell line; format: cell-based, Human
RAW 264.7 cells = assay: Flow cytometry analysis of Reactive Oxygen Species production (DCFDA) in LPS induced RAW cell line; format: cell-based; settings: RAW cell line treated along with LPS, 48 hours
Description: RAW cell line was cultured in a T 25 flask in DMEM. After the cells reached confluency evel up to 90 percent, they were seeded in 6 well plates at 1 lakh cells/well. After adhesion of cells drugs were treated along with LPS and kept for 48 hours.
Flow cytometry analysis of Reactive Oxygen Species production on RAW cell line:
After 48 hr of treatment cells were harvested and stained with DCFDA and run-on flow cytometer.

Row | IC50 [1] | IC50 [2] | Compound | Percentage of cell death ([1]; HCT-116, 1.0 μg/mL) | Percentage of cell death ([1]; HCT-116, 2.0 μg/mL) | Percentage of cell death ([1]; HCT-116, 5.0 μg/mL) | Percentage of cell death ([1]; HCT-116, 10.0 μg/mL) | Percentage of cell death ([1]; HCT-116, 25.0 μg/mL) | Percentage of cell death ([2]; MDA-MB-468, 1.0 μg/mL) | Percentage of cell death ([2]; MDA-MB-468, 2.0 μg/mL) | Percentage of cell death ([2]; MDA-MB-468, 5.0 μg/mL) | Percentage of cell death ([2]; MDA-MB-468, 10.0 μg/mL) | Percentage of cell death ([2]; MDA-MB-468, 25.0 μg/mL) | IC50 at 48 h [3] | ROS production (HEK cell line) | ROS production (RAW 264.7 cells)
1 | 3.8 µg/mL (≈ 8.79 µM) | – | CC1(C)OC2OC(COC(=O)c3cc4ccccc4oc3=O)C3OC(C)(C)OC3C2O1 (stereo not drawn) [Compound (3)] | 25.81 ± 0.015% | 44.01 ± 0.028% | 61.45 ± 0.006% | 75.01 ± 0.076% | 88.64 ± 0.018% | – | – | – | – | – | – | – | –
2 | – | 3.2 µg/mL (≈ 9.08 µM) | O=C(OCC1OC(O)C(O)C(O)C1O)c1cc2ccccc2oc1=O (stereo not drawn) [Compound (4)] | – | – | – | – | – | 25.71 ± 0.003% | 42.27 ± 0.026% | 66.49 ± 0.007% | 78.66 ± 0.018% | 86.10 ± 0.015% | > 1000 µg/mL | no ROS production | able to produce ROS in all concentrations
3 | 5 µg/mL (≈ 9.2 µM) | 5 µg/mL (≈ 9.2 µM) | COc1cccc2c1C(=O)c1c(O)c3c(c(O)c1C2=O)C[C@@](O)(C(=O)CO)C[C@@H]3O[C@H]1C[C@H](N)[C@H](O)[C@H](C)O1 [DXN, Doxorubicin, reference compound] | 16.12 ± 0.001% | 31.68 ± 0.012% | 52.34 ± 0.015% | 63.76 ± 0.0031% | 73.45 ± 0.060% | 16.12 ± 0.001% | 31.68 ± 0.012% | 52.34 ± 0.015% | 63.76 ± 0.0031% | 73.45 ± 0.060% | – | – | –

— patent publication US20240059725A1, “COUMARIN COMPOUNDS AND A PROCESS FOR PREPARATION THEREOF” (priority 2021, published 2024)
